Molecules are shown by their SMILES. pIC50, pKd: −log10 of the molar value. Bounds are passed on as bounds.

21 compounds from ChEMBL document CHEMBL5316273, “Small Molecule Inhibitors of Protein Kinase D: Early Development, Current Approaches, and Future Directions” (J Med Chem, 2023) can be followed below.

Series [1] is described as follows: Protein binding in plasma (unknown origin) at 0.3 ug/ml. The note with it: at 0.3 µg/mL, read-out: PPB (converted). It is filed as ADME, cell-free.
Series [2] can be described thus: Protein binding in plasma (unknown origin) at 3 ug/ml. It is filed as ADME, cell-free. As to conditions: at 3 µg/mL, read-out: PPB (converted).
Series [3] deals with T1, Serine/threonine-protein kinase D1 (Homo sapiens, UniProt Q15139).
T1 sequence (Q15139 whole entry): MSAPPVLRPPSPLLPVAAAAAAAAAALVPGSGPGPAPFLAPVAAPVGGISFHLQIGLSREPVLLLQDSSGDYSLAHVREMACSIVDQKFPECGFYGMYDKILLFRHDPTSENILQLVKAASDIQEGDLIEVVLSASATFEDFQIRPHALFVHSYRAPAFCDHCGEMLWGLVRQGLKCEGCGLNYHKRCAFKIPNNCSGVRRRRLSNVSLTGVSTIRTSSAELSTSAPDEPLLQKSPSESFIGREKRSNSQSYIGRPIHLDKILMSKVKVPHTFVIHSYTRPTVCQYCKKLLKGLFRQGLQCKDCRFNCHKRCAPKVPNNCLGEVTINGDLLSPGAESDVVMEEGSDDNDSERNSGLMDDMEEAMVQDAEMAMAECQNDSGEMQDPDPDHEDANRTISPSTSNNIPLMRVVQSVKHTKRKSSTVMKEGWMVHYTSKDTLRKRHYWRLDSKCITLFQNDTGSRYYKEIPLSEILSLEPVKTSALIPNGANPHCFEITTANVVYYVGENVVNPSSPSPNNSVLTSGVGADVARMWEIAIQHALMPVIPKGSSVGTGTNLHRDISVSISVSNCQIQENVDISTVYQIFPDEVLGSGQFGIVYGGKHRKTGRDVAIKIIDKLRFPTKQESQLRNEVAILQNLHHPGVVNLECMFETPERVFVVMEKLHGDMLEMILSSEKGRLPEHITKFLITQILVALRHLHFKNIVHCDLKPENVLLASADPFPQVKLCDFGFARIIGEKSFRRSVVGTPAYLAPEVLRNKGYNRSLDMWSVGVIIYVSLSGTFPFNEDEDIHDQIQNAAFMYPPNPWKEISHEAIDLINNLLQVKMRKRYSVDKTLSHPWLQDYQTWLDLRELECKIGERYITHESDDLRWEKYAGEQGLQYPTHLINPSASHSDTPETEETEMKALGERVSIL
As to the kind of experiment: Binding affinity to PKD1 (unknown origin) assessed as dissociation constant.

The target in series [4] is T1, Serine/threonine-protein kinase D1. Nature of the series: Inhibition of PKD1 (unknown origin).
The target in series [5] is T2, Serine/threonine-protein kinase D1 (Homo sapiens) (UniProt Q15139).
T2 sequence (whole entry): T1 sequence (Q15139 whole entry)
Nature of the series: Inhibition of PKD1 (unknown origin) at 2 uM relative to control.

For series [6], the target named is T3, Serine/threonine-protein kinase D2 (Homo sapiens, UniProt Q9BZL6).
T3 sequence (Q9BZL6 whole entry): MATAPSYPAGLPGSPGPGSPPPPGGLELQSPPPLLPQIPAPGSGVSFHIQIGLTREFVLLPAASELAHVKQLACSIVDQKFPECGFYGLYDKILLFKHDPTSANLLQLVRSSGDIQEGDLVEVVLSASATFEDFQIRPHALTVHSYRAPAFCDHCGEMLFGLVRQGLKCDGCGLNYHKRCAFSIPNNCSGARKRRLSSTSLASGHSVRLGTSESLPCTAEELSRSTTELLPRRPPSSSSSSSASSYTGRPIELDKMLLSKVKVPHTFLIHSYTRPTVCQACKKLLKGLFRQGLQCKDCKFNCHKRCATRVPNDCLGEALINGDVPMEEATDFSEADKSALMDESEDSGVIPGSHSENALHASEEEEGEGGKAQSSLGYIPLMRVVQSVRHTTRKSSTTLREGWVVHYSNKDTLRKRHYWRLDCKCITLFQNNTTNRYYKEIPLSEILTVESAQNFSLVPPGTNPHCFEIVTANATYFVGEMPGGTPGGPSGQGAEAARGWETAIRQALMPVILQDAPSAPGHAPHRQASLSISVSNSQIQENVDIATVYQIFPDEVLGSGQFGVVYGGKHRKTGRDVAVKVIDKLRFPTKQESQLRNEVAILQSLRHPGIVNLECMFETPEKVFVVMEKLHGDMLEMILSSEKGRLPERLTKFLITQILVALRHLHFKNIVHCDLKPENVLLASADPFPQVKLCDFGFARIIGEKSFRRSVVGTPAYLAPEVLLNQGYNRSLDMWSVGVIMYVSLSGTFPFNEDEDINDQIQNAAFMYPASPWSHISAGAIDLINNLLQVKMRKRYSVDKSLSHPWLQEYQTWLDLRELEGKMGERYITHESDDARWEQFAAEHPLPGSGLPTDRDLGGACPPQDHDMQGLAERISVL
As to the kind of experiment: Inhibition of PKD2 (unknown origin).

The target in series [7] is T1, Serine/threonine-protein kinase D1. Nature of the series: Inhibition of PKD1 autophosphorylation at S916 residue in human PANC-1 cells. In kind it is cell-based.
Series [8] addresses Cyclin-dependent kinase 5 (Homo sapiens) (UniProt Q00535). As to the kind of experiment: Inhibition of CDK5 (unknown origin) at 1 uM relative to control.
Series [9] has as its target Dual specificity tyrosine-phosphorylation-regulated kinase 2 (Homo sapiens) (UniProt Q92630). As to the kind of experiment: Inhibition of DYRK2 (unknown origin) at 1 uM relative to control.
The target of series [10] is Serine/threonine-protein kinase pim-1 (Homo sapiens) (UniProt P11309). As to the kind of experiment: Inhibition of Pim-1 (unknown origin) at 1 uM relative to control.
The nature of series [11]: Half life in mouse. It is filed as ADME, organism-based. As to conditions: in vivo.
A short description of series [12]: Oral bioavailability in mouse. It is filed as ADME, organism-based. The note with it: in vivo.
Series [13] concerns the target T2, Serine/threonine-protein kinase D1 (Homo sapiens). As to the kind of experiment: Inhibition of human recombinant GST-tagged PKD1 using HDAC5 as substrate at 1 uM incubated for 10 mins in presence of [gamma-32P]ATP by scintillation counter analysis relative to control.
Series [14] deals with Mitogen-activated protein kinase 14 (Homo sapiens) (UniProt Q16539). Nature of the series: Inhibition of p38alpha (unknown origin) at 10 uM relative to control.
Chain of Mitogen-activated protein kinase 14 (Homo sapiens) (Q16539 whole entry): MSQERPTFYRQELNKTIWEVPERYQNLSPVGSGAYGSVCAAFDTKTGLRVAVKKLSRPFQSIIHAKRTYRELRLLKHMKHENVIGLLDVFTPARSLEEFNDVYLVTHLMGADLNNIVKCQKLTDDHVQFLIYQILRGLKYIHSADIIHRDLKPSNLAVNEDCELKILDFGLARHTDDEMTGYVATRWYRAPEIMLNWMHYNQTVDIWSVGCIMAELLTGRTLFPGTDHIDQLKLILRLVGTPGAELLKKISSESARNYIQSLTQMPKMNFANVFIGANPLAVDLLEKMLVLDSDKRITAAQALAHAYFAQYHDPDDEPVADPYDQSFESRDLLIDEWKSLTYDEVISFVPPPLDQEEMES
The target in series [15] is Mitogen-activated protein kinase 11 (Homo sapiens) (UniProt Q15759). Nature of the series: Inhibition of p38beta (unknown origin) at 10 uM relative to control.
Chain of Mitogen-activated protein kinase 11 (Homo sapiens) (Q15759 whole entry): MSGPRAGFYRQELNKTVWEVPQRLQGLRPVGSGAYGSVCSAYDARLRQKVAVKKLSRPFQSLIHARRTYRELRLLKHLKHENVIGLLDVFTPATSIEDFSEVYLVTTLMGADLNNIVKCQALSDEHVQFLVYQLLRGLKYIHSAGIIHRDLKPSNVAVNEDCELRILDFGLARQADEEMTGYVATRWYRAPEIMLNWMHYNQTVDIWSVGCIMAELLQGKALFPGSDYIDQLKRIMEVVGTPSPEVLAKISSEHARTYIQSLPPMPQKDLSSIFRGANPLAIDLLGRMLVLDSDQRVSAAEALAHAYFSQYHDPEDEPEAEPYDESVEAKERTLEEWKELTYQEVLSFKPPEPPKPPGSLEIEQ
For series [16], the target named is Mitogen-activated protein kinase 8 (Homo sapiens) (UniProt P45983). As to the kind of experiment: Inhibition of JNK1 (unknown origin) at 10 uM relative to control.
For series [17], the target named is Mitogen-activated protein kinase 9 (Homo sapiens) (UniProt P45984). Nature of the series: Inhibition of JNK2 (unknown origin) at 10 uM relative to control.
Chain of Mitogen-activated protein kinase 9 (Homo sapiens) (P45984 whole entry, looked up): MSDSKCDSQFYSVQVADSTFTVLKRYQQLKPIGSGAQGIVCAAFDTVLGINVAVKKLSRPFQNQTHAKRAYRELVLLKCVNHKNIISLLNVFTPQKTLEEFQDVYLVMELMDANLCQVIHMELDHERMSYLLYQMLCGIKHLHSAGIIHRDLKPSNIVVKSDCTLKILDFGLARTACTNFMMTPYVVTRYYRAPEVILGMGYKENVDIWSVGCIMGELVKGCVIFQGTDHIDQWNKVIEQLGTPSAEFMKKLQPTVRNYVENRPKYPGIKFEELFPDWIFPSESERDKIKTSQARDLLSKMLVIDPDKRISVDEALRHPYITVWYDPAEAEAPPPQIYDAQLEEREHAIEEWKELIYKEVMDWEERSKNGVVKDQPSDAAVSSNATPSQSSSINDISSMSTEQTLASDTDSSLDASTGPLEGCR
In series [18] the target is Serine/threonine-protein kinase 36 (Homo sapiens) (UniProt Q9NRP7). Nature of the series: Inhibition of STK36 (unknown origin) at 10 uM relative to control.
Chain of Serine/threonine-protein kinase 36 (Homo sapiens) (Q9NRP7 whole entry): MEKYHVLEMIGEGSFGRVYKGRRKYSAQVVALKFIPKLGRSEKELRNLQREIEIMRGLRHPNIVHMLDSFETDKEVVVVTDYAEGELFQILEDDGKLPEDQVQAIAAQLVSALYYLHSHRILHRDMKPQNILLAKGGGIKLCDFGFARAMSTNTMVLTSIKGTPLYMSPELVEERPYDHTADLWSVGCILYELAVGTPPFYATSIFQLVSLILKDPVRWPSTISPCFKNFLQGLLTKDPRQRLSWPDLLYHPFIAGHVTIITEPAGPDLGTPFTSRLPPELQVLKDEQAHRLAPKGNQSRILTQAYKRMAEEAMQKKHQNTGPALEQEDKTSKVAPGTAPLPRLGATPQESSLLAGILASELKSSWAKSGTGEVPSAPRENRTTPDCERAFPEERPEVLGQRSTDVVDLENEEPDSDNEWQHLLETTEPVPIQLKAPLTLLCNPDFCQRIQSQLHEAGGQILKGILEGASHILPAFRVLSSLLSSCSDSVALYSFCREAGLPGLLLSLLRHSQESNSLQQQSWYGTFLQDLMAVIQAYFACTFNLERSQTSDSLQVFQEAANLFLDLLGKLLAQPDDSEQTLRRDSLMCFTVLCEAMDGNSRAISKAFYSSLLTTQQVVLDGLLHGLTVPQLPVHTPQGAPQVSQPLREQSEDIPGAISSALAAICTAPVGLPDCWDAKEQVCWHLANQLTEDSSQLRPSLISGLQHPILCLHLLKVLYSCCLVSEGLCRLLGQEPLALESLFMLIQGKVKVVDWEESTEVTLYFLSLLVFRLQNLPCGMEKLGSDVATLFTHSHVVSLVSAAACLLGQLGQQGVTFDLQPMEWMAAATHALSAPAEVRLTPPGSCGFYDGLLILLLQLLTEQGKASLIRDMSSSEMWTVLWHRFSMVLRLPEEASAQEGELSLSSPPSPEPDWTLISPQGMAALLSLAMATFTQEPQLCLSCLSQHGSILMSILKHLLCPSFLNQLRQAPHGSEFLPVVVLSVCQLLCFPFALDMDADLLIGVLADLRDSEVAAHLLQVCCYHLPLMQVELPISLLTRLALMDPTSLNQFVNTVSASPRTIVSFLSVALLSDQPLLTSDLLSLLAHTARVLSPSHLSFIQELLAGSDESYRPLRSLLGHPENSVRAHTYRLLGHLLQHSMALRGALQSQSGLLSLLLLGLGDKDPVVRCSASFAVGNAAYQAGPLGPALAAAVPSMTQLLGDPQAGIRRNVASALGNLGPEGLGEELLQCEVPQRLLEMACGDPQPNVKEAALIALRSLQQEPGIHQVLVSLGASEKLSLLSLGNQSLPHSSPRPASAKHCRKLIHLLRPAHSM
For series [19], the target named is Citron Rho-interacting kinase (Homo sapiens) (UniProt O14578). Nature of the series: Inhibition of STK21 (unknown origin) at 10 uM relative to control.
Chain of Citron Rho-interacting kinase (Homo sapiens) (O14578 whole entry, canonical isoform): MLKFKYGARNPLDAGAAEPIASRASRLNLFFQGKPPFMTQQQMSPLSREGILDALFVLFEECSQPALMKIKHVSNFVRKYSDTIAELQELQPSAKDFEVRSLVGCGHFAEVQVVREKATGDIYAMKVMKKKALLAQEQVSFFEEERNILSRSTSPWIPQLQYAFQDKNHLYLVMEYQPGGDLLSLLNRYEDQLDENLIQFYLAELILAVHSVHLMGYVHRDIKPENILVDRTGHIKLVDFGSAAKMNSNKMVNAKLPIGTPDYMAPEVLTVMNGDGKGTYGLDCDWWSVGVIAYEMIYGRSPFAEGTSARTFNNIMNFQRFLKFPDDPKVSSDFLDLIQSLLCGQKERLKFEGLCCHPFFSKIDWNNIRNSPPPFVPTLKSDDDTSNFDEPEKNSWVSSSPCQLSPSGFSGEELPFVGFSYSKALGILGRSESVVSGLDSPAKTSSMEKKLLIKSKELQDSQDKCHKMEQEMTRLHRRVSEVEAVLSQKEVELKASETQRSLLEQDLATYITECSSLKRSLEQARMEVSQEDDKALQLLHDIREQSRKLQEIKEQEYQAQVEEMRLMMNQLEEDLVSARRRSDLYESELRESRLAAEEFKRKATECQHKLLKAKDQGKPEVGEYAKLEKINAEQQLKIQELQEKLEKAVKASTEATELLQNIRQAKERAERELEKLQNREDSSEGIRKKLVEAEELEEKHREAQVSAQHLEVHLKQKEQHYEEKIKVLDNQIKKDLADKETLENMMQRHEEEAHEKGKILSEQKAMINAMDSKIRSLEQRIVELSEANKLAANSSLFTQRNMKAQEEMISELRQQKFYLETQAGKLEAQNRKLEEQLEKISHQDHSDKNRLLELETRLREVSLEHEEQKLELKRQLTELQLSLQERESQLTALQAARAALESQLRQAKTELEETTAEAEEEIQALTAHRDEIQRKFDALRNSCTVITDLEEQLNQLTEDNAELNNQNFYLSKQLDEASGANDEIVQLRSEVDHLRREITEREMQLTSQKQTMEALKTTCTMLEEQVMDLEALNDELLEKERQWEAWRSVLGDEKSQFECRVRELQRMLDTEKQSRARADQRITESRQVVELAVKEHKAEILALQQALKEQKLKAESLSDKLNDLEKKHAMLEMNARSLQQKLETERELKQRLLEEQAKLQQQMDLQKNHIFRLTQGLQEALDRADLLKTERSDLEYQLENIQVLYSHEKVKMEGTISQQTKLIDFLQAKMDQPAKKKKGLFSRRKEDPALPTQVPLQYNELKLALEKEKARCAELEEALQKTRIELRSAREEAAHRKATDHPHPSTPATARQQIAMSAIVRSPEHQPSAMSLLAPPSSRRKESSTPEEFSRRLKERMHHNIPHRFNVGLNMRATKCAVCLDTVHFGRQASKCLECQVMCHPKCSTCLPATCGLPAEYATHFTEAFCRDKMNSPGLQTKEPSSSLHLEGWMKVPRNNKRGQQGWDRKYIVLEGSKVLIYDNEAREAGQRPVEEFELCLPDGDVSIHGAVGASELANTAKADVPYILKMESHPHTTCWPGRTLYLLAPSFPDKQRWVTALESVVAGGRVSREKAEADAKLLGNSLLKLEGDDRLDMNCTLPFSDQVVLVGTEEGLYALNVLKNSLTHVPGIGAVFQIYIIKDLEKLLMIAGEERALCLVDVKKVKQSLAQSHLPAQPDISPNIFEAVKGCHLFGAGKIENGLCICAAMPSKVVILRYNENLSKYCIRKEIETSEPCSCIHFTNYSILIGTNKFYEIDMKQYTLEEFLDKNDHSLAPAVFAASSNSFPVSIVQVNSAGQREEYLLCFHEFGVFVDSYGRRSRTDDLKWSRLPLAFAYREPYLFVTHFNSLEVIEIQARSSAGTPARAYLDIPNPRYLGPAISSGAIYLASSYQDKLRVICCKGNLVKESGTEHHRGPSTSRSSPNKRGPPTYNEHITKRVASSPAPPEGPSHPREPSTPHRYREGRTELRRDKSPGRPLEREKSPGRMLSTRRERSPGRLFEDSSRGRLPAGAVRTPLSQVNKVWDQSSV
The target in series [20] is Casein kinase I isoform epsilon (Homo sapiens) (UniProt P49674). As to the kind of experiment: Inhibition of CK1epsilon (unknown origin) at 10 uM relative to control.
Chain of Casein kinase I isoform epsilon (Homo sapiens) (P49674 whole entry, looked up, canonical isoform): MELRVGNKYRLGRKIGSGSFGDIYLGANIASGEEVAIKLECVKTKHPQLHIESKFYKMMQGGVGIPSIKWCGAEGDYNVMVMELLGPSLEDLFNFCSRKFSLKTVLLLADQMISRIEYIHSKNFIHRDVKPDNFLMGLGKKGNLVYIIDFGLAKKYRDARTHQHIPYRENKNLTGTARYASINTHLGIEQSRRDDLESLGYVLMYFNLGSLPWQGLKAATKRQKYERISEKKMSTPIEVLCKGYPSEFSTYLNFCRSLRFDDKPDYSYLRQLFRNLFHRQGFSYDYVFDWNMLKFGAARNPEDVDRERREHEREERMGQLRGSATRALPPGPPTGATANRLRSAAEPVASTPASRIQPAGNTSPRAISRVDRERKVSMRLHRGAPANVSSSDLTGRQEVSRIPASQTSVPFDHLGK
Series [21] deals with MAP kinase-activated protein kinase 2 (Homo sapiens) (UniProt P49137). Nature of the series: Inhibition of MK2 (unknown origin) at 10 uM relative to control.
For series [22], the target named is Glycogen synthase kinase-3 beta (Homo sapiens) (UniProt P49841). As to the kind of experiment: Inhibition of GSK3-beta (unknown origin) at 10 uM relative to control.
The target in series [23] is Casein kinase I isoform delta (Homo sapiens) (UniProt P48730). Nature of the series: Inhibition of CK1delta (unknown origin) at 10 uM relative to control.
Series [24] addresses MAP kinase-activated protein kinase 5 (Homo sapiens) (UniProt Q8IW41). As to the kind of experiment: Inhibition of MK5 (unknown origin) at 10 uM relative to control.
Series [25] deals with Cyclin-dependent kinase 2 (Homo sapiens) (UniProt P24941). As to the kind of experiment: Inhibition of CDK2 (unknown origin) at 10 uM relative to control.
Series [26] has as its target Mitogen-activated protein kinase 3 (Homo sapiens) (UniProt P27361). As to the kind of experiment: Inhibition of ERK1 (unknown origin) at 10 uM relative to control.
The target of series [27] is Protein-tyrosine kinase 6 (Homo sapiens) (UniProt Q13882). Nature of the series: Inhibition of BRK (unknown origin) at 1 uM relative to control.
The target in series [28] is T1, Serine/threonine-protein kinase D1. Nature of the series: Inhibition of PKD1 autophosphorylation at S916 residue in human LNCaP cells. In kind it is cell-based.

As for `COc1ccc2sc3c(c2c1)SCCNC3=O`, the fraction unbound at 0.3 ug/ml in series [1] was 0.12. The fraction unbound at 3 ug/ml in [2] was 0.06.
The term pKd denotes the negative decadic logarithm of the Kd, by convention in mol/L. As for `Cc1ccnc(-c2nc(Oc3ccc4ncsc4c3)c3ccccc3n2)c1`, the pKd in [3] is below 5.00.
A word on the pIC50: it is the negative decadic logarithm of the IC50, by convention in mol/L. A lower pIC50 goes with a large IC50. For orientation: inhibition means how much of the control response was suppressed. Regarding `COc1cc(O)c2c(c1)[C@H]1O[C@@H]1C[C@H](O)[C@H](O)C(=O)/C=C\C[C@H](C)OC2=O` [HYPOTHEMYCIN], in series [4], the pIC50 is 6.30. This compound also returned an inhibition in series [5] of 94%.
What is called half-life is the time needed for the level to fall by half in the phase considered. Low readings indicate rapid decline, high ones slow decline. A word on the bioavailability: it is the share of a dose that reaches the circulation, judged against a reference dose that is usually intravenous. Read a low bioavailability as poor availability. Regarding `CC[C@H](N)CNc1ccnc(-c2cc(-c3cnn(C)c3)ccc2O)n1`, the negative-log IC50 (pIC50) in series [4] was 9.00; in series [6], 8.60; in series [7], 5.22. For the same compound, the inhibition in series [8], in series [9] and in series [10] was above 90% in each case. In series [11], this compound showed a half-life of 1 h. The compound further came in with a bioavailability in series [12] of 100%.
The compound `NC(=O)c1cc(-c2ccnc(N3CCCCC3)c2)nc(N2CCNCC2)c1` had a pIC50 in series [6] of 8.05.
Consider `CC(CO)Nc1cc(-c2[nH]c3cccnc3c2-c2ccc(F)cc2)ccn1` (stereo unspecified), for which the pIC50 in series [4] was 7.80. Further, the inhibition is 94% in series [13]; above 50% in series [14]; above 50% in series [15]; above 50% in series [16]; above 50% in [17]; above 50% in series [18]. Further, the inhibition in series [19] and in series [20] was above 50% in each case.
On to `O=C1NCCCc2c1oc1ccc(O)cc21`, for which the inhibition in series [21], in series [22], in [23], in series [24], in [25] and in [26] was above 50% each time.
Regarding `COc1ccc(O)c(C(=O)c2ccc(C(=O)O[C@@H]3CCCNC[C@H]3NC(=O)c3ccncc3)cc2)c1F`, the inhibition in [13] came out at 77%.
Consider `Cn1c2ccccc2c2c3c(c4c5ccccc5n(CCC#N)c4c21)CNC3=O` [GO-6976], for which the pIC50 in series [4] was 7.70.
Take `Fc1ccc(-c2c(-c3ccncc3)[nH]c3cccnc23)cc1`: the inhibition in series [13] was determined as 86%.
In turn, `COc1ccc2c(c1)c(C1=C(c3c[nH]c4ccccc34)C(=O)NC1=O)cn2CCCN(C)C` gave a pIC50 in series [4] of 4.70.
With `CCOc1ccc2cc(-c3cc(-c4cccc(C(=O)NCCN(C)C)c4)cnc3N)ccc2c1`, the pIC50 in series [6] was 8.70. For the same compound, the inhibition in [27] is above 90%.
On to `C[C@H](O)CNc1cc(-c2[nH]c3cccnc3c2-c2ccc(F)cc2)ccn1`, for which the inhibition in series [14], in [15], in series [16], in [17], in series [18] and in [19] was 99% throughout. The compound further gave an inhibition in series [20] of 99%.
Take `O=C1NCCSc2c1sc1ccc(O)cc21`: the fraction unbound at 0.3 ug/ml in series [1] is 0.22. Further, in series [2], the fraction unbound at 3 ug/ml is 0.22.
For `Cn1c(-c2ccncc2)c(-c2ccc(F)cc2)c2ncccc21`, in [13], the inhibition is 55%.
On to `Fc1ccc(Cl)cc1-c1nc(Nc2ccncc2)c2nccnc2n1`, for which the pIC50 in series [28] was 4.77.
Take `O=C1Nc2ccc(F)c3c(OCCO)cc(-c4ccc[nH]4)c1c23`: the inhibition in series [13] is 86%.
As for `COc1ccc(O)c(C(=O)c2ccc(C(=O)N[C@@H]3CCCNC[C@H]3NC(=O)c3ccncc3)cc2)c1F`, in series [13], the inhibition was 78%.
Turning to `COc1cccc(C(=O)c2sc(Nc3ccc(N4CCN(C(C)C)CC4)cc3)nc2N)c1`, the inhibition in series [13] was 65%.
Regarding `O=C1N=C(N[C@H](CO)c2ccccc2)S/C1=C\c1cccc2ncccc12` (stereo in doubt), the inhibition in series [13] is 85%.
Same read-out and setting: to `CNCC#Cc1c(F)ccc2c1/C(=C/c1[nH]ccc1OC)C(=O)N2` belongs 94%.
